Data reported in patent US20260062422A1 (Halda Therapeutics OpCo, Inc., priority 2022, published 2026).

Columns and labels:
VCaP cells = test: Cellular growth inhibition assay for VCaP cells, CellTiter-Glo; type: cell-based, human; conditions: 72 hours treatment, CellTiter-Glo 2.0
Method in brief: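 GI50 values come from four-parameter curve fits of luminescence data normalized to a zero baseline. Compound, in medium with 0.5% DMSO, was added one day after plating and left for 72 h before CellTiter-Glo 2.0 addition.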

T47D cells = test: Cellular growth inhibition assay for T47D cells, CellTiter-Glo; type: cell-based, human; conditions: 72 hours treatment, CellTiter-Glo 2.0 cell viability
Method in brief: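 Luminescence from CellTiter-Glo 2.0 after 72 h of compound exposure gives the viability signal. Cells grew in insulin-supplemented (0.2 units/mL) DMEM with 10% FBS and were treated one day after seeding at 0.5% DMSO. GI50 values come from four-parameter nonlinear regression.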

[1] = tested on: T-Rex 293 cell line SC3 cells lacking increased expression of androgen receptor protein; test: Cellular growth inhibition, T-Rex 293 SC3 cells without doxycycline, CellTiter-Glo; type: cell-based; conditions: T-Rex 293 SC3 cells not exposed to doxycycline, CellTiter-Glo 2.0
Method in brief: (§1)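 Cells of clone SC3 are seeded in charcoal-dextran-stripped serum medium with or without 10 ng/mL doxycycline to induce wild-type androgen receptor. After 24 h, serial compound dilutions are added at 0.5% DMSO and incubated 72 h at 37 °C. CellTiter-Glo 2.0 measures viability, giving GI50 values.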

[2] = tested on: T-Rex 293 cell line SC3 cells having increased expression of androgen receptor protein due to exposure to doxycycline; test: Cellular growth inhibition, T-Rex 293 SC3 cells with doxycycline (androgen receptor induced), CellTiter-Glo; type: cell-based; conditions: T-Rex 293 SC3 cells with 10 ng/mL doxycycline (increased androgen receptor expression)
Method in brief: as §1

| SMILES | GI50 (VCaP cells; Homo sapiens, VCaP, 72 h) [nM] | GI50 (T47D cells; Homo sapiens, T47D, 72 h) [nM] | GI50 ([1]; 72 h) [nM] | GI50 ([2]; 72 h) [nM] | GI50 (VCaP cells) [nM] | GI50 (T47D cells) [nM] | GI50 ([1]; 72 hours) [nM] | GI50 ([2]; 72 hours) [nM] |
| --- | --- | --- | --- | --- | --- | --- | --- | --- |
| Cc1sc2c(c1C)C(c1ccc(CN3CC4(CCCN(c5ncc(C(=O)N[C@H]6C(C)(C)[C@H](Oc7ccc(C#N)c(Cl)c7)C6(C)C)cn5)C4)C3)cc1)=NC(Cc1ncco1)c1nnc(C)n1-2 (stereo partly shown) [Compound I-138] | < 500 | 500 to 1500 | 1500 to 3000 | < 500 |  |  |  |  |
| Cc1sc2c(c1C)C(c1ccc(OC3CC4(CCN(c5ncc(C(=O)N[C@H]6C(C)(C)[C@H](Oc7ccc(C#N)c(Cl)c7)C6(C)C)cn5)CC4)C3)cc1)=NC1(CC1)c1nnc(C)n1-2 [Compound I-461] | < 500 | < 500 | 500 to 1500 | < 500 |  |  |  |  |
| Cc1sc2c(c1C)C(c1ccc(C3CC(C4CCN(c5ncc(C(=O)N[C@H]6C(C)(C)[C@H](Oc7ccc(C#N)c(Cl)c7)C6(C)C)cn5)CC4)C3)cc1)=N[C@@H](Cc1ncco1)c1nnc(C)n1-2 (stereo partly shown) [Compound I-397] | > 3000 | > 3000 | > 3000 | > 3000 |  |  |  |  |
| Cc1sc2c(c1C)C(c1ccc(OC[C@H]3C[C@@]4(CCCN(c5ncc(C(=O)N[C@H]6C(C)(C)[C@H](Oc7ccc(C#N)c(Cl)c7)C6(C)C)cn5)C4)C3)cc1)=N[C@@H](C)c1nnc(C)n1-2 [Compound I-351] | < 500 | > 3000 | > 3000 | < 500 |  |  |  |  |
| Cc1sc2c(c1C)C(c1ccc(C[C@H]3C[C@]4(CCCN(c5ncc(C(=O)N[C@H]6C(C)(C)[C@H](Oc7ccc(C#N)c(Cl)c7)C6(C)C)cn5)C4)C3)cc1)=N[C@@H](C)c1nnc(C)n1-2 [Compound I-394] | < 500 | < 500 | > 3000 | < 500 |  |  |  |  |
| Cc1sc2c(c1C)C(c1ccc([C@H]3C[C@H]([C@H]4CCN(c5ncc(C(=O)N[C@H]6C(C)(C)[C@H](Oc7ccc(C#N)c(Cl)c7)C6(C)C)cn5)C4)C3)cc1)=N[C@H](Cc1ncco1)c1nnc(C)n1-2 [Compound I-418] | < 500 | < 500 | < 500 | < 500 |  |  |  |  |
| Cc1sc2c(c1C)C(c1ccc(-n3nccc3C3CCN(c4ncc(C(=O)N[C@H]5C(C)(C)[C@H](Oc6ccc(C#N)c(Cl)c6)C5(C)C)cn4)CC3)cc1)=N[C@@H](Cc1ncco1)c1nnc(C)n1-2 [Compound I-455] | < 500 | > 3000 | > 3000 | < 500 |  |  |  |  |
| Cc1sc2c(c1C)C(c1ccc(C(=O)N3CCN(CCc4ncc(C(=O)N[C@H]5C(C)(C)[C@H](Oc6ccc(C#N)c(Cl)c6)C5(C)C)cn4)CC3)cc1)=N[C@H](Cc1ncco1)c1nnc(C)n1-2 [Compound I-357] | > 3000 | 1500 to 3000 | > 3000 | 500 to 1500 |  |  |  |  |
| Cc1sc2c(c1C)C(c1ccc(C[C@H]3CCC4(CCCN(c5ncc(C(=O)N[C@H]6C(C)(C)[C@H](Oc7ccc(C#N)c(Cl)c7)C6(C)C)cn5)C4)C3)cc1)=N[C@@H](Cc1ncco1)c1nnc(C)n1-2 (stereo partly shown) [Compound I-163] | > 3000 | 1500 to 3000 | > 3000 | < 500 |  |  |  |  |
| Cc1sc2c(c1C)C(c1ccc(C(=O)N(C)CCCc3ncc(C(=O)N[C@H]4C(C)(C)[C@H](Oc5ccc(C#N)c(Cl)c5)C4(C)C)cn3)cc1)=N[C@@H](Cc1ncco1)c1nnc(C)n1-2 [Compound I-342] | > 3000 | > 3000 | > 3000 | > 3000 |  |  |  |  |
| Cc1sc2c(c1C)C(c1ccc(OC3CCN(c4ncc(C(=O)N[C@H]5C(C)(C)[C@H](Oc6ccc(C#N)c(Cl)c6)C5(C)C)cn4)CC3)cc1)=N[C@@H](C)c1nnc(C)n1-2 [Compound I-261] | 500 to 1500 | 500 to 1500 | 1500 to 3000 | < 500 |  |  |  |  |
| Cc1sc2c(c1C)C(c1ccc(O[C@@H]3CO[C@@]4(CCCN(c5ncc(C(=O)N[C@H]6C(C)(C)[C@H](Oc7ccc(C#N)c(Cl)c7)C6(C)C)cn5)C4)C3)cc1)=N[C@@H](Cc1ncco1)c1nnc(C)n1-2 [Compound I-188] | < 500 | < 500 | < 500 | < 500 |  |  |  |  |
| Cc1sc2c(c1C)C(c1ccc(N3CC(CC4CCN(c5ncc(C(=O)N(C)[C@H]6C(C)(C)[C@H](Oc7ccc(C#N)c(Cl)c7)C6(C)C)cn5)CC4)C3)cc1)=N[C@@H](C)c1nnc(C)n1-2 [Compound I-618] | 1500 to 3000 | < 500 | > 3000 | < 500 |  |  |  |  |
| Cc1sc2c(c1C)C(c1ccc(C3CC(C4CCN(c5cnc(C(=O)N[C@H]6C(C)(C)[C@H](Oc7ccc(C#N)c(Cl)c7)C6(C)C)cn5)CC4)C3)cc1)=NC(C)c1nnc(C)n1-2 (stereo partly shown) [Compound I-471] |  |  |  |  | > 3000 | < 500 | > 3000 | 500 to 1500 |
| Cc1sc2c(c1C)C(c1ccc(C(=O)N3CCN(Cc4ncc(C(=O)N[C@H]5C(C)(C)[C@H](Oc6ccc(C#N)c(Cl)c6)C5(C)C)cn4)CC3)cc1)=N[C@@H](Cc1ncco1)c1nnc(C)n1-2 [Compound I-327] | > 3000 | > 3000 | > 3000 | > 3000 |  |  |  |  |
| Cc1sc2c(c1C)C(c1ccc(-n3ccc(C4CCN(c5ncc(C(=O)N[C@H]6C(C)(C)[C@H](Oc7ccc(C#N)c(Cl)c7)C6(C)C)cn5)CC4)n3)cc1)=N[C@@H](Cc1ncco1)c1nnc(C)n1-2 [Compound I-441] | < 500 | < 500 | 500 to 1500 | < 500 |  |  |  |  |
| Cc1sc2c(c1C)C(c1ccc(CCCOC3CCN(c4ncc(C(=O)N[C@H]5C(C)(C)[C@H](Oc6ccc(C#N)c(Cl)c6)C5(C)C)cn4)CC3)cc1)=N[C@@H](Cc1ccncc1)c1nnc(C)n1-2 [Compound I-215] | < 500 | < 500 | < 500 | < 500 |  |  |  |  |
| Cc1sc2c(c1C)C(c1ccc(C[C@H]3C[C@@H](OC4CCN(c5ncc(C(=O)N[C@H]6C(C)(C)[C@H](Oc7ccc(C#N)c(Cl)c7)C6(C)C)cn5)CC4)C3)cc1)=N[C@@H](Cc1ncco1)c1nnc(C)n1-2 [Compound I-426] | < 500 | < 500 | > 3000 | < 500 |  |  |  |  |
| Cc1sc2c(c1C)C(c1ccc(CCCOC3CCN(c4ncc(C(=O)N[C@H]5C(C)(C)[C@H](Oc6ccc(C#N)c(Cl)c6)C5(C)C)cn4)CC3)cc1)=C[C@H](Cc1cccnc1)c1nnc(C)n1-2 [Compound I-246] | < 500 | < 500 | > 3000 | < 500 |  |  |  |  |
| Cc1sc2c(c1C)C(c1ccc(OC3CC4(CCN(c5ncc(C(=O)N[C@H]6C(C)(C)[C@H](Oc7ccc(C#N)c(Cl)c7)C6(C)C)cn5)CC4)C3)cc1)=N[C@@H](CC#N)c1nnc(C)n1-2 [Compound I-229, N-[3-(3-chloro-4-cyano-phenoxy)-2,2,4,4-tetramethyl-cyclobutyl]-2-[2-[4-[(9S)-9-(cyanomethyl)-4,5,13-trimethyl-3-thia-1,8,11,12-tetrazatricyclo[8.3.0.02,6]trideca-2(6),4,7,10,12-pentaen-7-yl]phenoxy]-7-azaspiro [3.5]nonan-7-yl]pyrimidine-5-carboxamide] | < 500 | > 3000 | > 3000 | < 500 |  |  |  |  |
| Cc1sc2c(c1C)C(c1ccc(O[C@@H]3COC4(C3)CN(c3ncc(C(=O)N[C@H]5C(C)(C)[C@H](Oc6ccc(C#N)c(Cl)c6)C5(C)C)cn3)C4)cc1)=N[C@@H](Cc1ncco1)c1nnc(C)n1-2 [Compound I-182] | < 500 | < 500 | < 500 | < 500 |  |  |  |  |
| Cc1sc2c(c1C)C(c1ccc(CC3CC4(C3)CN(c3ncc(C(=O)N[C@H]5C(C)(C)[C@H](Oc6ccc(C#N)c(Cl)c6)C5(C)C)cn3)C4)cc1)=N[C@H](Cc1ncco1)c1nnc(C)n1-2 [Compound I-152] | > 3000 | > 3000 | > 3000 | < 500 |  |  |  |  |
